Measurements published in patent publication US9114126B2, “Na/K-ATPase ligands, ouabain antagonists, assays and uses thereof” (The University of Toledo, priority 2009, dated 2015).
“Also recorded” adds a separate entry of the source. Values belong to the compound of their own block, whether it stands above or below them.

How the values were obtained:
purified Na/K-ATPase [1] = target: T1, purified Na/K-ATPase (Sus scrofa (Pig), UniProt P05024); assay: Na/K-ATPase activity, 96-well high throughput screen assay (released phosphate, BIOMOL GREEN); type: biochemical; conditions: for effect of changes in K+ concentration on compound-induced inhibition of Na/K-ATPase: data not shown
Description: The purified Na/K-ATPase was prepared from pig kidney. The specific activities of Na/K-ATPase of various kidney preparations were in the range of 900-1,200 μmol/mg/h, which were greater than 95% of the total ATPase activity. The high throughput screen is conducted in a 96-well format with the final reaction volume of 100 μl containing the following components: 100 mM NaCl, 20 mM KCl, 1 mM MgCl2, 1 mM EGTA, 20 mM Tris-HCl (pH 7.4) and 0.2 μg of purified Na/K-ATPase. After compounds were added, mixtures were incubated for 15 min at 37° C. for 15 min and reaction was initiated by adding 2 mM ATP.Mg mixture.
Reactions were carried out for 15 min and then stopped by the addition of 100 μl ice-cold trichloroacetic acid. Reaction mixtures were cleared by centrifugation, and assayed for released phosphate using the BIOMOL GREEN™ Reagent according to the manufacturer's instructions. In addition, the control Na/K-ATPase activity was measured in the presence and absence of 1 mM ouabain, and taken as 100%. Furthermore, 5 μM ouabain and 0.1% of DMSO were included in each plate as a positive and a vehicle control, respectively.

purified Na/K-ATPase [2] = target: T1, purified Na/K-ATPase; assay: Na/K-ATPase activity assay (Example II), two-phase inhibition; type: biochemical
Description: FIGS. 7A-7C: Dose-dependent inhibition of Na/K-ATPase by MB5: FIG. 7A: The two phase inhibition of both low and high affinity.
The purified Na/K-ATPase was prepared from pig kidney. The specific activities of Na/K-ATPase of various kidney preparations were in the range of 900-1,200 μmol/mg/h, which were greater than 95% of the total ATPase activity. The Na/K-ATPase assay was conducted in the following reaction buffer with the final volume of 500 μl: 100 mM NaCl, 20 mM KCl, 1 mM MgCl2, 1 mM EGTA, 20 mM Tris-HCl (pH 7.4) and 1 μg of purified Na/K-ATPase. After compounds were added, mixtures were incubated for 15 min at 37° C. for 15 min and reaction was initiated by adding 2 mM ATP.Mg mixture. Reactions were carried out for 15 min and then stopped by the addition of 300 μl ice-cold trichloroacetic acid. Reaction mixtures were cleared by centrifugation, and assayed for released phosphate using the BIOMOL GREEN™ Reagent according to the manufacturer's instructions.

purified Na/K-ATPase [3] = target: T1, purified Na/K-ATPase; assay: 3H-ouabain binding to the purified Na/K-ATPase; conditions: 20 nM 3H ouabain
Description: FIG. 8: Effects of MB5 on ouabain binding to the purified Na/K-ATPase. The purified Na/K-ATPase (2 μg) was incubated with 20 nM ^3H ouabain in the presence of different concentrations of MB5.

[4] = test system: EGF or dopamine-induced ERK activation in LLC-PK1 cells; assay: EGF- or dopamine-induced activation of ERKs in LLC-PK1 cells after MB5 pretreatment; type: cell-based, pig; conditions: MB5 1 nM, 10 μM, 15 min pretreatment
Description: FIG. 9E: Effects of MB5 on stimuli-induced activation of ERKs. LLC-PK1 cells were pretreated with different concentrations of MB5 (1 nM, 10 μM) for 15 min, exposed to epidermal growth factor (EGF) or Dopamine stimuli for either 10 or 3 min, and assayed for active ERKs as in FIG. 9A. A representative set of images is shown.
(§1) LLC-PK1 cells grown on coverslips were serum starved for 24 h and treated with MB5 or ouabain for different times Immunostaining of p-ERK was performed using the commercial available ERK/MAPK (Phospho-Thr202/Tyr204) Phosphorylation/Translocation Cell-Based Assay Kit according to the manufacturer's instructions. The signals were detected by a Leica confocal microscope. Leica confocal software was used for data analysis.
Ouabain stimulates protein kinase cascades via a Src-dependent pathway in LLC-PK1 cells. To determine whether MB5 can antagonize ouabain-induced signal transduction, treated LLC-PK1 cells were pre-treated with different concentrations of MB5 for 15 min and then exposed to ouabain or other stimuli.

[5] = test system: ouabain-induced ERK activation in LLC-PK1 cells; assay: Ouabain-induced activation of ERKs in LLC-PK1 cells after MB5 pretreatment; type: cell-based, pig; conditions: 15 min pretreatment, ouabain 1 nM and 100 nM
Description: FIG. 9B: Effects of MB5 on ouabain-induced activation of ERKs. LLC-PK1 cells were pretreated with different concentrations of MB5 (1 nM, 10 μM) for 15 min, exposed to 1 nM ouabain for 10 min, and assayed for active ERKs as in FIG. 9A. A representative set of images is shown.
FIG. 9C: Effects of MB5 on ouabain-induced activation of ERKs. LLC-PK1 cells were pretreated with different concentrations of MB5 (1 nM, 10 μM) for 15 min, exposed to 100 nM ouabain for 10 min, and assayed for active ERKs as in FIG. 9A. A representative set of images is shown.
FIG. 9D: Effects of MB5 on ouabain-induced activation of ERKs. LLC-PK1 cells were pretreated with different concentrations of MB5 (1 nM, 10 μM) for 15 min, exposed to 1 nM ouabain for 1 hour, and assayed for active ERKs as in FIG. 9A. A representative set of images is shown.
as §1
Ouabain stimulates protein kinase cascades via a Src-dependent pathway in LLC-PK1 cells. […]

Na-ATPase = Na-ATPase (Sus scrofa (Pig), UniProt P05024); assay: Na-ATPase activity inhibition; type: biochemical
Description: In the experiments depicted in FIG. 1A, the dose-response curves of MB7 were compared with ouabain. […] Furthermore, 10 μM MB7 produced 58±6% inhibition of Na-ATPase as did on Na/K-ATPase.

ERKs in LLC-PK1 cells = assay: p-ERK immunostaining in LLC-PK1 cells; type: cell-based, pig; conditions: for cellular ERK activity (active ERKs by immunostaining): LLC-PK1, 10 min, 100 nM ouabain, MB7 from 100 nM to 10 μM
Description: FIG. 4B: LLC-PK1 cells were treated with MB7 or ouabain for 10 minutes and were immunostained with the ERK/MAPK (Phospho-Thr202/Tyr204) Phosphorylation/Translocation Cell-Based Assay Kit according to the manufacturer's instructions. The images were collected as described under “Experimental Procedures.” The scale bar represents […]. Images from a representative experiment are shown. The quantitative data of p-ERK were collected from 40 different fields in three independent experiments and expressed as mean±S.E. *, p<0.05 versus control.
as §1, with “MB7” for “MB5”
as §1

Na/K-ATPase/Src complex = Na/K-ATPase/Src complex (Sus scrofa (Pig), UniProt P05024); assay: Activation of receptor Na/K-ATPase/Src complex (pY418 Western blot); type: biochemical; conditions: reconstituted complex in test tube; ouabain 10 μM, MB7 1 and 10 μM
Description: FIG. 3: Effects of MB7 and ouabain on receptor Na/K-ATPase/Src complex. The purified Na/K-ATPase (2 μg) and purified Src were incubated in the presence of either 10 μM ouabain or 1 and 10 μM MB7 for 15 min and assayed for Src activation as described in “Experimental Procedures”. Values are mean SE of at least three independent experiments. **p<0.01 compared with control.
The activity of receptor Na/K-ATPase/Src complex was assayed. Briefly, the purified Src (4.5 U) was incubated with 2 μg of the purified Na/K-ATPase in phosphate-buffered saline (PBS) for 30 min at 37° C. Afterward, the Na/K-ATPase/Src complex was exposed to ouabain or MB7 for 10 min. Reaction was initiated by addition of 2 mM ATP/Mg^2+, continued for 5 min at 37° C. and was stopped by addition of SDS sample buffer. The activation of Src was measured by Western blot using anti-pY418 antibody. Total Src was also probed for loading control.

Src in A549 cells = assay: Src activation in A549 cells (Western blot); type: cell-based, human; conditions: 10 min; 100 nM ouabain, MB7 up to 10 μM
Description: FIG. 4A: Effects of MB7 and ouabain on Src and ERKs. A549 cells were treated with ouabain or MB7 for 10 min and cell lysates (50 μg/lane) were separated by SDS-PAGE and analyzed for Src activation as in FIG. 3. The values are mean±S.E. from four separate experiments. *, p<0.05 versus control.
The pig kidney epithelia cells (LLC-PK1 cells) and human lung cancer cells (A549 cells) were obtained from ATCC and maintained in Dulbecco's modified Eagle's medium (DMEM) in the presence of 10% FBS, 100 units/ml penicillin, and 100 μg/ml streptomycin in a 5% CO2 humidified incubator. To eliminate the confounding effect of growth factors in the serum, cells were serum starved for 24 h before experiments unless otherwise indicated.
Cells were washed with PBS and solubilized in ice-cold RIPA buffer containing 1% Nonidet P-40, 1% sodium deoxycholate, 150 mM NaCl, 1 mM EDTA, 1 mM phenylmethylsulfonyl fluoride, 1 mM sodium orthovanadate, 1 mM NaF, 10 μg/ml aprotinin, 10 μg/ml leupeptin, and 50 mM Tris-HCl (pH 7.4) as previously described (13). Cell lysates were then cleared by centrifugation at 14,000 rpm, and supernatants were used for protein assay and subjected to Western blot analysis. Samples were separated on SDS-PAGE (50 μg/lane) and transferred to a cellulose membrane. […] Protein signals were detected using an ECL kit and quantified using a Bio-Rad GS-670 imaging densitometer.

[6] = inhibition of purified pig kidney Na/K-ATPase, Table II, read-out: IC50

Structure (SMILES): COc1cc(O)c2c(=O)c3c(OC)c(O)ccc3oc2c1 [2027BA1]
IC50 (purified Na/K-ATPase [1]; [6]): > 100 µM

Structure (SMILES): COc1cc(O)c2c(=O)c3c(O)c(OC)ccc3oc2c1 [2027BA2]
IC50 (purified Na/K-ATPase [1]; [6]): > 100 µM

Structure (SMILES): COc1ccc2oc3cc(OC)c(OC)c(OC)c3c(=O)c2c1 [C-017]
IC50 (purified Na/K-ATPase [1]; [6]): > 100 µM

IC50 (purified Na/K-ATPase [1]; [6]): > 100 µM
Structure (SMILES): O=c1c2ccccc2oc2cc(O)cc(O)c12 [MB1, 1,3-Dihydroxyxanthone]

Structure (SMILES): O=c1c2ccccc2oc2c(O)c(O)ccc12 [MB2, 3,4-Dihydroxyxanthone]
IC50 (purified Na/K-ATPase [1]; [6]): > 100 µM

IC50 (purified Na/K-ATPase [1]; [6]): 65 µM
Structure (SMILES): O=c1c2cccc(O)c2oc2cc(O)cc(O)c12 [MB3, 1,3,5-Trihydroxyxanthone]

inhibition at 50 µM (purified Na/K-ATPase [2]; at about 50 μM, read-out: inhibition by low affinity binding): 100%
inhibition of the ATPase activity by high affinity inhibition (purified Na/K-ATPase [2]; high affinity phase): about 25%
IC50 (purified Na/K-ATPase [2]; high affinity site, sub-nM concentrations): 0.04 nM
concentration at which significant inhibition of ouabain binding was detected (purified Na/K-ATPase [3]): 0.1 nM
maximal inhibition of ouabain binding (purified Na/K-ATPase [3]; 10 μM MB5): 30%
IC50 (purified Na/K-ATPase [1]; [6]): 10 µM
Structure (SMILES): O=c1c2cccc(O)c2oc2c(O)c(O)ccc12 [MB5, 3,4,5-Trihydroxyxanthone]
effect on ERK activation induced by EGF or dopamine [4]: failed to affect ERK activation
effect on ouabain-induced activation of ERKs ([5]; MB5 at 1 nM): significantly reduce
effect on ouabain-induced activation of ERKs ([5]; MB5 at 10 μM): completely blocked

Structure (SMILES): O=c1c2ccc(O)c(O)c2oc2cc(O)cc(O)c12 [MB6, 1,3,5,6-Tetrahydroxyxanthone]
IC50 (purified Na/K-ATPase [1]; [6]): 60 µM

inhibition at 10 µM (Na-ATPase): 58 ± 6%
activation of Na/K-ATPase-associated Src (Na/K-ATPase/Src complex): failed to activate Src
effect on Na+ and ATP affinities of Na/K-ATPase (purified Na/K-ATPase [1]; MB7 at 10 μM, substrate dependence, FIG. 2A-2B): reduced both Na^+ and ATP affinities
effect of changes in K+ concentration on compound-induced inhibition of Na/K-ATPase (purified Na/K-ATPase [1]): no effect
IC50 (purified Na/K-ATPase [1]; dose-dependent inhibition of Na/K-ATPase, FIG. 1A, read-out: apparent IC50): 5 µM
IC50 (purified Na/K-ATPase [1]; [6]): 5 µM
Structure (SMILES): O=c1c2ccc(O)c(O)c2oc2c(O)c(O)ccc12 [MB7, 3,4,5,6-Tetrahydroxyxanthone]
cellular ERK activity (active ERKs by immunostaining) (ERKs in LLC-PK1 cells): failed to affect cellular ERK activity
Src activation in A549 cells (Src in A549 cells): failed to do the same

Structure (SMILES): COc1ccc2c(=O)c3ccc(OC)c(OC)c3oc2c1 [MB8]
IC50 (purified Na/K-ATPase [1]; [6]): > 100 µM

Structure (SMILES): C[C@@H]1O[C@@H](O[C@H]2C[C@@H](O)[C@]3(CO)[C@H]4[C@H](O)C[C@]5(C)[C@@H](C6=CC(=O)OC6)CC[C@]5(O)[C@@H]4CC[C@]3(O)C2)[C@H](O)[C@H](O)[C@H]1O [ouabain]
cellular ERK activity (active ERKs by immunostaining) (ERKs in LLC-PK1 cells): increased cellular amount of active ERKs
ERK stimulation (ERKs in LLC-PK1 cells; LLC-PK1, ouabain 1 nM and 100 nM, time and concentration-dependent): stimulated ERKs
activation of Na/K-ATPase-associated Src (Na/K-ATPase/Src complex): stimulated
Src activation in A549 cells (Src in A549 cells): stimulated Src
IC50 (purified Na/K-ATPase [1]): ~5 µM
effect of changes in K+ concentration on compound-induced inhibition of Na/K-ATPase (purified Na/K-ATPase [1]): antagonized

Structure (SMILES): O=c1c2ccccc2oc2ccccc12 [xanthone, reference compound]
inhibition of Na/K-ATPase activity (purified Na/K-ATPase [1]; dose-response curves): failed to inhibit; also recorded: no detectable inhibition
